Assay results taken from US11866450B2, “Modulators of Cystic Fibrosis Transmembrane Conductance regulator, pharmaceutical compositions, methods of treatment, and process for making the modulators” (priority 2018, dated 2024).
Several values for one entry are separate records, joined by “and”; a condition that tells them apart may be missing. Equal entries are not always repeated. Where two headings read alike, the source gives them in different places.

What was measured:
[1] = snar bond, DMSO
[2] = target: CFTR-mediated chloride transport (Homo sapiens, UniProt P13569); type: cell-based; conditions: enteroid cells incubated with test compound 18-24 hours, acute 10 μM forskolin and 300 nM Compound III; for Max. Activity: % of chloride transport with 3 μM Compound A, 3 μM Compound II and 300 nM acute Compound III triple combination control
Summary of the method: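 Human intestinal enteroid cells incubated with compound 18–24 h at 37° C., then membrane potential dye (FLIPR) read 15 min after chloride-free stimulation with 10 μM forskolin, 100 μM IBMX and 300 nM Compound III. AUC expressed as % of triple-combination control (3 μM Compound A, 3 μM Compound II, 300 nM Compound III).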

[3] = from Cc1c(S(=O)(=O)NC(=O)c2ccc(-n3ccc(OCC(C)(C)C(F)(F)F)n3)nc2Cl)cnn1CCCC1CNC(C)(C)C1, 14-membered ring, K2CO3/CsF/3A MS, 25.9 mM, 150.0 °C

CFTR-mediated chloride transport, sequence (P13569 whole entry, looked up): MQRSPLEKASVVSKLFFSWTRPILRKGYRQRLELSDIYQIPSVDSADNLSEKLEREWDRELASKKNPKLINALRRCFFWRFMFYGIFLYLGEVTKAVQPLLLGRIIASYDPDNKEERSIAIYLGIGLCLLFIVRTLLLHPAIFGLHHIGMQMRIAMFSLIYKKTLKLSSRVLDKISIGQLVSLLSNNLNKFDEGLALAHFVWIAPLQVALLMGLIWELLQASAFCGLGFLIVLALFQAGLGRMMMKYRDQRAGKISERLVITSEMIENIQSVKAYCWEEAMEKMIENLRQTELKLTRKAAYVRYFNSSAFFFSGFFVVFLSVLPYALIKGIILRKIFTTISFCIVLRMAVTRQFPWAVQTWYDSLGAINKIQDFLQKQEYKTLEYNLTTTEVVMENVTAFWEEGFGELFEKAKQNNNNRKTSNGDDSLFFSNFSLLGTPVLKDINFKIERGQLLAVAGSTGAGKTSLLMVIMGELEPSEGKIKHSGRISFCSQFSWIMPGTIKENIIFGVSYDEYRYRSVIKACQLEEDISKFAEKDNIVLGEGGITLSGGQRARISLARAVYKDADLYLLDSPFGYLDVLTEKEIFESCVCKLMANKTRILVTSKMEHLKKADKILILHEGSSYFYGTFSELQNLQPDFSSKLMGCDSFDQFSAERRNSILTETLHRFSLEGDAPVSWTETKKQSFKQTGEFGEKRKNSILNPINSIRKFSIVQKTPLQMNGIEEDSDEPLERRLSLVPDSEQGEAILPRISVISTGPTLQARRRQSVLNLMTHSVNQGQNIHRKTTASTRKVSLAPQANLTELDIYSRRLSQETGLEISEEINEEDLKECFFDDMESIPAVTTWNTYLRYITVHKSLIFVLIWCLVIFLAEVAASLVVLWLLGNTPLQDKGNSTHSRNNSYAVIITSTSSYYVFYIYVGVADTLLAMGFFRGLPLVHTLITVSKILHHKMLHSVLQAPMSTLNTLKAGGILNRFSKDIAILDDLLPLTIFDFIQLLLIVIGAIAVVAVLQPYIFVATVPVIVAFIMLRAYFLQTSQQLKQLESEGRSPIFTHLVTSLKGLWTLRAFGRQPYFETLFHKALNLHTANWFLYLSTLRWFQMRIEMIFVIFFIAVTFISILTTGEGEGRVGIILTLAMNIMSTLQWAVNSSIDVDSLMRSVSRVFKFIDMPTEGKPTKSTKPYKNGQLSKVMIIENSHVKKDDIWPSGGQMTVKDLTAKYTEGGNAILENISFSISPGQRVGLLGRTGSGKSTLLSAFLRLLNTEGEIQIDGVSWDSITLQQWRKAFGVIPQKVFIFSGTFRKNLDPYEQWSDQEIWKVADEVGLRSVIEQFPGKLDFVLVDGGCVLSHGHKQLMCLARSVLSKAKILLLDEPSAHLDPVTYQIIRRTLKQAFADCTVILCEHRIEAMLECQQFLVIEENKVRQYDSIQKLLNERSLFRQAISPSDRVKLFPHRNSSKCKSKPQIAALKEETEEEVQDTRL

**Q.** Which ring closure, yield after HPLC ([1]; from CC1(C)CC(CCCNc2cccc(S(=O)(=O)NC(=O)c3ccc(Cl)nc3Cl)n2)CN1, 15-membered ring, K2CO3/CsF/3A MS, 82.2 mM, 140.0 °C) does the source give for `CC1(C)CC2CCCNc3cccc(n3)S(=O)(=O)NC(=O)c3ccc(Cl)nc3N1C2` (stereo not shown) here?
**A.** 38%

**Q.** For `CC1(C)CC2CCCn3ccc(n3)S(=O)(=O)NC(=O)c3ccc(Cl)nc3N1C2` (stereo not shown), which ring closure, yield after HPLC ([1]; from CC(C)(C)OC(=O)N1CC(CCCn2nccc2S(=O)(=O)NC(=O)c2ccc(Cl)nc2Cl)CC1(C)C, 14-membered ring, K2CO3/CsF/3A MS, 89.2 mM, 140.0 °C, 2 steps) is on record?
**A.** 12%

**Q.** Which ring closure, yield after HPLC ([1]; from tert-butyl 4-[3-[3-1(2,6-dichloropyridine-3-carbonyl)sulfamoyl]pyrazol-1-yl]propyl]-2,2-dimethyl-pyrrolidine-1-carboxylate, TFA (Boc off), CsF/K2CO3/3A MS, 89.2 mM, 140.0 °C, 2 steps) does the source give for `CC1(C)CC2CCCn3nccc3S(=O)(=O)NC(=O)c3ccc(Cl)nc3N1C2` (stereo not shown) here?
**A.** 4%

**Q.** Which ring closure, yield after HPLC ([1]; from CC1(C)CC(CCNc2cccc(S(=O)(=O)NC(=O)c3ccc(-n4ccc(OCCCC5(C(F)(F)F)CC5)n4)nc3Cl)n2)CN1, 14-membered ring, K2CO3/CsF/3A MS, 128.0 mM, 150.0 °C) does the source give for `CC1(C)CC2CCNc3cccc(n3)S(=O)(=O)NC(=O)c3ccc(-n4ccc(OCCCC5(C(F)(F)F)CC5)n4)nc3N1C2` (stereo not shown) here?
**A.** 43%

**Q.** With `CC1(C)CCC2CCCNc3cccc(n3)S(=O)(=O)NC(=O)c3ccc(Cl)nc3N21` (stereo not shown) as the compound, how does the ring closure, yield after HPLC ([1]; from CC1(C)CCC(CCCNc2cccc(S(=O)(=O)NC(=O)c3ccc(Cl)nc3Cl)n2)N1, 14-membered ring, K2CO3/CsF/4A MS, 63.7 mM, 150.0 °C) read?
**A.** 24%

**Q.** With `CC1(C)CCC2CCCOc3cccc(c3)S(=O)(=O)NC(=O)c3ccc(-n4ccc(OCCC5(C(F)(F)F)CC5)n4)nc3N21` (stereo not shown) as the compound, how does the ring closure, yield after HPLC ([1]; from CC(C)(C)OC(=O)N1C(CCCOc2cccc(S(=O)(=O)NC(=O)c3ccc(-n4ccc(OCCC5(C(F)(F)F)CC5)n4)nc3Cl)c2)CCC1(C)C, 14-membered ring, K2CO3, then CsF, 64.2 mM, 170.0 °C, 2 steps) read?
**A.** 4%

**Q.** Which ring closure, yield after HPLC ([1]; from Cc1c(S(=O)(=O)NC(=O)c2ccc(-n3ccc(OCCC4(C(F)(F)F)CC4)n3)nc2Cl)cnn1CCCCC1CNC(C)(C)C1, 15-membered ring, K2CO3/CsF, 130.1 mM, 150.0 °C) does the source give for `Cc1c2cnn1CCCCC1CN(c3nc(-n4ccc(OCCC5(C(F)(F)F)CC5)n4)ccc3C(=O)NS2(=O)=O)C(C)(C)C1` (stereo not shown) here?
**A.** 13%

**Q.** With `Cc1c2cnn1CCC[C@@H]1CN(c3nc(-n4ccc(OCCC5(C(F)(F)F)CC5)n4)ccc3C(=O)NS2(=O)=O)C(C)(C)C1` as the compound, how does the ring closure, yield after HPLC ([1]; from Cc1c(S(=O)(=O)NC(=O)c2ccc(-n3ccc(OCCC4(C(F)(F)F)CC4)n3)nc2Cl)cnn1CCC[C@@H]1CNC(C)(C)C1, 14-membered ring, K2CO3/CsF, 37.8 mM, 160.0 °C) read?
**A.** 6% and 16%

**Q.** Which ring closure, yield after HPLC ([1]; from Cc1ccc(S(=O)(=O)NC(=O)c2ccc(-n3ccc(OCCC4(C(F)(F)F)CC4)n3)nc2Cl)nc1NCCCC1CNC(C)(C)C1, 15-membered ring, K2CO3/CsF/4A MS, 61.3 mM, 140.0 °C, 16.0 h) does the source give for `Cc1ccc2nc1NCCCC1CN(c3nc(-n4ccc(OCCC5(C(F)(F)F)CC5)n4)ccc3C(=O)NS2(=O)=O)C(C)(C)C1` (stereo not shown) here?
**A.** 42%

**Q.** For `Cc1cn2nc1S(=O)(=O)NC(=O)c1ccc(-n3ccc(OCCC(C4CC4)C4CC4)n3)nc1N1CC(CCC2)CC1(C)C` (stereo not shown), which ring closure, yield after HPLC ([1]; from Cc1cn(CCCC2CNC(C)(C)C2)nc1S(=O)(=O)NC(=O)c1ccc(-n2ccc(OCCC(C3CC3)C3CC3)n2)nc1Cl, 14-membered ring, K2CO3/CsF/3A MS, 58.8 mM, 150.0 °C) is on record?
**A.** 38%

**Q.** For `[2H]C([2H])(Oc1ccn(-c2ccc3c(n2)N2C[C@@H](CCCNc4nc(ccc4OCc4ccccc4)S(=O)(=O)NC3=O)CC2(C)C)n1)C([2H])([2H])C1C2(CC2)C12CC2`, which ring closure, yield after HPLC ([1]; from [2H]C([2H])(Oc1ccn(-c2ccc(C(=O)NS(=O)(=O)c3ccc(OCc4ccccc4)c(NCCC[C@@H]4CN(C(=O)OC(C)(C)C)C(C)(C)C4)n3)c(Cl)n2)n1)C([2H])([2H])C1C2(CC2)C12CC2, 15-membered ring, K2CO3/4A MS, 100.9 mM, 140.0 °C, 2 steps) is on record?
**A.** 44%

**Q.** For `CC1(C)CC2CCCNc3ccc(cn3)S(=O)(=O)NC(=O)c3ccc(-n4ccc(OCCC5(C(F)(F)F)CC5)n4)nc3N1C2` (racemic) [Compound 62, 12,12-Dimethyl-8-(3-{2-[1-(trifluoromethyl)cyclopropyl]ethoxy}-1H-pyrazol-1-yl)-2λ^6-thia-3,9,11,18,20-pentaazatetracyclo[17.2.2.111,14.05,10]tetracosa-1(22),5,7,9,19(23),20-hexaene-2,2,4-trione], which EC50 [2] is on record?
**A.** < 1 µM

**Q.** What about the “Max. Activity” value [2] of the same compound?
**A.** +++ (+++ is >60%)

**Q.** What about the ring closure, yield after HPLC ([1]; from CC1(C)CC(CCCNc2ccc(S(=O)(=O)NC(=O)c3ccc(-n4ccc(OCCC5(C(F)(F)F)CC5)n4)nc3Cl)cn2)CN1, 16-membered ring, K2CO3/CsF/3A MS, 37.3 mM, 165.0 °C, 19.0 h) of the same compound?
**A.** 6%

**Q.** For `CC1(C)CC2CCCCNc3cccc(n3)S(=O)(=O)NC(=O)c3ccc(-n4cc(OCCC5(C(F)(F)F)CC5)cn4)nc3N1C2` (racemic) [Compound 70, 12,12-Dimethyl-8-(4-{2-[1-(trifluoromethyl)cyclopropyl]ethoxy}-1H-pyrazol-1-yl)-2λ^6-thia-3,9,11,19,24-pentaazatetracyclo[18.3.1.111,14.05,10]pentacosa-1(23),5,7,9,20(24),21-hexaene-2,2,4-trione], which EC50 [2] is on record?
**A.** < 1 µM

**Q.** And the “Max. Activity” value [2]?
**A.** ++ (++ is 30-60%)

**Q.** What about the ring closure, yield after HPLC ([1]; from CC1(C)CC(CCCCNc2cccc(S(=O)(=O)NC(=O)c3ccc(-n4cc(OCCC5(C(F)(F)F)CC5)cn4)nc3Cl)n2)CN1, 16-membered ring, K2CO3/CsF/3A MS, 164.4 mM, 150.0 °C) of the same compound?
**A.** 24%

**Q.** Which ring closure, yield after HPLC [1, 3] does the source give for `Cc1c2cnn1CCCC1CN(c3nc(-n4ccc(OCC(C)(C)C(F)(F)F)n4)ccc3C(=O)NS2(=O)=O)C(C)(C)C1` (single isomer, unassigned; atropisomer 1) here?
**A.** 10%

**Q.** With `Cc1c2cnn1CCCC1CN(c3nc(-n4ccc(OCC(C)(C)C(F)(F)F)n4)ccc3C(=O)NS2(=O)=O)C(C)(C)C1` (single isomer, unassigned; atropisomer 2) as the compound, how does the ring closure, yield after HPLC [1, 3] read?
**A.** 4%

**Q.** Which ring closure, yield after HPLC ([1]; from CC1(C)CC(CCNc2cccc(S(=O)(=O)NC(=O)c3ccc(-n4ccc(OCCC(C5CC5)C5CC5)n4)nc3Cl)n2)CN1, 14-membered ring, K2CO3/CsF/3A MS, 24.9 mM, 150.0 °C) does the source give for `CC1(C)CC2CCNc3cccc(n3)S(=O)(=O)NC(=O)c3ccc(-n4ccc(OCCC(C5CC5)C5CC5)n4)nc3N1C2` (single isomer, unassigned; enantiomer 1) here?
**A.** 41%

**Q.** For `CC1(C)CC2CCNc3cccc(n3)S(=O)(=O)NC(=O)c3ccc(-n4ccc(OCCC(C5CC5)C5CC5)n4)nc3N1C2` (single isomer, unassigned; enantiomer 2), which ring closure, yield after HPLC ([1]; from CC1(C)CC(CCNc2cccc(S(=O)(=O)NC(=O)c3ccc(-n4ccc(OCCC(C5CC5)C5CC5)n4)nc3Cl)n2)CN1, 14-membered ring, K2CO3/CsF/3A MS, 22.7 mM, 150.0 °C) is on record?
**A.** 29%

**Q.** Which EC50 [2] does the source give for `Cc1c2cnn1CCCC1CN(c3nc(-n4ccc(OCC(C)(C)C(F)(F)F)n4)ccc3C(=O)NS2(=O)=O)C(C)(C)C1` (stereo not shown) [Compound 280, 20,20,22-trimethyl-4-[3-(3,3,3-trifluoro-2,2-dimethylpropoxy)-1H-pyrazol-1-yl]-10λ^6-thia-1,3,9,13,14-pentaazatetracyclo[16.2.1.111,14.02,7]docosa-2,4,6,11(22),12-pentaene-8,10,10-trione] here?
**A.** < 1 µM

**Q.** And the “Max. Activity” value [2]?
**A.** ++ (++ is 30-60%)

**Q.** Which EC50 [2] does the source give for `Cc1c2cnn1CCCC1CN(c3nc(-n4ccc(OCC(C)(C)C(F)(F)F)n4)ccc3C(=O)NS2(=O)=O)C(C)(C)C1` (stereo not shown) [Compound 282, 20,20,22-trimethyl-4-[3-(3,3,3-trifluoro-2,2-dimethylpropoxy)-1H-pyrazol-1-yl]-10λ^6-thia-1,3,9,13,14-pentaazatetracyclo[16.2.1.111,14.02,7]docosa-2,4,6,11(22),12-pentaene-8,10,10-trione] here?
**A.** > 3 µM

**Q.** And the “Max. Activity” value [2]?
**A.** + (+ is <30%)

**Q.** For `[2H]c1ccc2nc1NCCC[C@@H]1CN(c3nc(-n4ccc(OCC([2H])([2H])C5C6(CC6)C56CC6)n4)ccc3C(=O)NS2(=O)=O)C(C)(C)C1` [Compound 298, (14S)-8-[3-(2-{dispiro[2.0.2.1]heptan-7-yl}-2,2-dideuterio-ethoxy)-1H-pyrazol-1-yl]-12,12-dimethyl(20-deuterio)-2λ^6-thia-3,9,11,18,23-pentaazatetracyclo[17.3.1.111,14.05,10]tetracosa-1(23),5,7,9,19,21-hexaene-2,2,4-trione], which EC50 [2] is on record?
**A.** < 1 µM

**Q.** And the “Max. Activity” value [2]?
**A.** +++ (+++ is >60%)

**Q.** Which results are given for `[2H]c1ccc2nc1NCCC[C@@H]1CN(c3nc(-n4ccc(OCCC5C6(CC6)C56CC6)n4)ccc3C(=O)NS2(=O)=O)C(C)(C)C1` [Compound 300, (14S)-8-[3-(2-{dispiro[2.0.2.1]heptan-7-yl}ethoxy)-1H-pyrazol-1-yl]-12,12-dimethyl(20-deuterio)-2λ^6-thia-3,9,11,18,23-pentaazatetracyclo[17.3.1.111,14.05,10]tetracosa-1(23),5,7,9,19,21-hexaene-2,2,4-trione]?
**A.** EC50 [2]: < 1 µM; Max. Activity [2]: +++ (+++ is >60%)

**Q.** With `[2H]c1ccc2nc1NCCC[C@@H]1CN(c3nc(-n4ccc(OC([2H])([2H])C([2H])([2H])C5C6(CC6)C56CC6)n4)ccc3C(=O)NS2(=O)=O)C(C)(C)C1` [Compound 301, (14S)-8-[3-(2-{dispiro[2.0.2.1]heptan-7-yl}-1,1,2,2-tetradeuterio-ethoxy)-1H-pyrazol-1-yl]-12,12-dimethyl(20-deuterio)-2λ^6-thia-3,9,11,18,23-pentaazatetracyclo[17.3.1.111,14.05,10]tetracosa-1(23),5,7,9,19,21-hexaene-2,2,4-trione] as the compound, how does the EC50 [2] read?
**A.** < 1 µM

**Q.** And the “Max. Activity” value [2]?
**A.** +++ (+++ is >60%)
